Measurements as given in ChEMBL document CHEMBL1201862, “PubChem BioAssay data set” (2004).
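48-hour exposure; five concentrations; linearly interpolated endpoints. Abbreviation: GI50, concentration required for 50% inhibition of growth.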 The source made the active and inactive calls. No stated cut-off is given here; in the data, active = GI50 up to about 1.1 µM and inactive = higher.

Tests used:
Experiment in all cases: NCI tumour cell line growth inhibition, 48 h
A549 = system: A549
SF-539 = system: SF-539
NCI-H226 = system: NCI-H226
TK-10 = system: TK-10
MDA-MB-231 = system: MDA-MB-231
COLO 205 = system: COLO 205
SNB-19 = system: SNB-19
Malme-3M = system: Malme-3M
RXF 393 = system: RXF 393
HCT-116 = system: HCT-116
OVCAR-4 = system: OVCAR-4
SK-OV-3 = system: SK-OV-3
CCRF-CEM = system: CCRF-CEM
NCI-H522 = system: NCI-H522
SF-295 = system: SF-295
T47D = system: T47D
M14 = system: M14
KM12 = system: KM12

| SMILES | GI50 (A549) | GI50 (SF-539) | GI50 (NCI-H226) | GI50 (TK-10) | GI50 (MDA-MB-231) | GI50 (COLO 205) | GI50 (SNB-19) | GI50 (Malme-3M) | GI50 (RXF 393) | GI50 (HCT-116) | GI50 (OVCAR-4) | GI50 (SK-OV-3) | GI50 (CCRF-CEM) | GI50 (NCI-H522) | GI50 (SF-295) | GI50 (T47D) | GI50 (M14) | GI50 (KM12) |
| --- | --- | --- | --- | --- | --- | --- | --- | --- | --- | --- | --- | --- | --- | --- | --- | --- | --- | --- |
| CCN(CC)Cc1ccc2cccnc2c1O | 6.34 µM (inactive) | 6.58 µM (inactive) | 6.08 µM (inactive) | 9.64 µM (inactive) | 5.53 µM (inactive) | 15.7 µM (inactive) | 18.5 µM (inactive) | 2.81 µM (inactive) | 93.1 µM (inactive) | 3.59 µM (inactive) | 16.4 µM (inactive) | 7.01 µM (inactive) | 0.713 µM (active) | 0.37 µM (active) | 3.48 µM (inactive) |  |  |  |
| NCCCCN(CCCN)Cc1ccccc1 | > 100 µM (inactive) | > 100 µM (inactive) | > 100 µM (inactive) | > 100 µM (inactive) | > 100 µM (inactive) | > 100 µM (inactive) | > 100 µM (inactive) |  | > 100 µM (inactive) | > 100 µM (inactive) | > 100 µM (inactive) | > 100 µM (inactive) | > 100 µM (inactive) | > 100 µM (inactive) | > 100 µM (inactive) | > 100 µM (inactive) | > 100 µM (inactive) | > 100 µM (inactive) |
| Nc1ccc(C2(c3ccc(N)cc3)C3CC4CC(C3)CC2C4)cc1 |  |  | 19.9 µM (inactive) | 18 µM (inactive) | 17.4 µM (inactive) |  | 14.6 µM (inactive) |  | 2.74 µM (inactive) | 21.9 µM (inactive) | 14.3 µM (inactive) | 13.4 µM (inactive) | 3.76 µM (inactive) | 15.6 µM (inactive) | 0.0592 µM (active) | 14.5 µM (inactive) | 14.9 µM (inactive) | 0.0975 µM (active) |
| CC(=O)OCCCCn1cnc2nc(Nc3ccccc3)nc(Cl)c21 | 61.7 µM (inactive) | > 100 µM (inactive) | 57 µM (inactive) | > 100 µM (inactive) | 35.2 µM (inactive) | > 100 µM (inactive) | > 100 µM (inactive) | 83.4 µM (inactive) | 68.7 µM (inactive) | 72.4 µM (inactive) | 65.3 µM (inactive) | 97.3 µM (inactive) | 78.2 µM (inactive) |  | 57.1 µM (inactive) | 56.9 µM (inactive) | 59.6 µM (inactive) | 91.4 µM (inactive) |
| CCN1CCC(O)(/C=C/c2ccccc2C)C(C(=O)/C=C/c2ccccc2C)C1 (stereo not drawn) | 3.1 µM (inactive) | 2.31 µM (inactive) | 3.79 µM (inactive) | 2.94 µM (inactive) | 2.55 µM (inactive) | 1.64 µM (inactive) |  | 4.08 µM (inactive) | 1.92 µM (inactive) | 1.78 µM (inactive) | 3.67 µM (inactive) | 6.14 µM (inactive) | 1.85 µM (inactive) |  | 2.34 µM (inactive) | 1.85 µM (inactive) | 2.04 µM (inactive) |  |
| OCCOCn1nc(-c2ccccc2)nc1-c1cnccn1 | > 100 µM (inactive) | > 100 µM (inactive) |  | > 100 µM (inactive) | > 100 µM (inactive) | > 100 µM (inactive) | > 100 µM (inactive) |  | > 100 µM (inactive) | > 100 µM (inactive) | > 100 µM (inactive) | > 100 µM (inactive) | > 100 µM (inactive) | > 100 µM (inactive) | > 100 µM (inactive) | > 100 µM (inactive) | > 100 µM (inactive) | > 100 µM (inactive) |
| Nc1ncnc2c1ncn2C=C=CCO |  |  | > 100 µM (inactive) | > 100 µM (inactive) | > 100 µM (inactive) | > 100 µM (inactive) | > 100 µM (inactive) | > 100 µM (inactive) | > 100 µM (inactive) | > 100 µM (inactive) | > 100 µM (inactive) |  | > 100 µM (inactive) |  | > 100 µM (inactive) | > 100 µM (inactive) | > 100 µM (inactive) | > 100 µM (inactive) |
